ChEMBL document CHEMBL4725262, “Potent antiviral activity of novel multi-substituted 4-anilinoquin(az)olines” (Bioorg Med Chem Lett, 2020)

What was measured:
[1] = Cytotoxicity against human Huh-7 cells infected with DENV2 by alamar blue assay; format: cell-based
dengue virus type 2 [2] = assay: Antiviral activity against DENV2 New Guinea C strain infected in Huh7 cells after 48 hrs by renilla luciferase assay; format: functional, organism-based, Huh-7; settings: for EC90: Huh-7, time 48 hrs
dengue virus type 2 [3] = assay: Potency index, ratio of erlotinib EC50 to compound EC50 for antiviral activity against DENV2 New Guinea C strain infected in Huh7 cells after 48 hrs by renilla luciferase assay; format: functional, Huh-7
[4] = Selectivity index, ratio of CC50 for human Huh7 cells to EC50 for DENV2 New Guinea C; format: toxicity; settings: read-out: Ratio CC50/EC50
[5] = Dengue virus, New Guinea C, Huh-7, 48 h

Row | Structure (SMILES) | CC50 [1] [µM] | EC50 (dengue virus type 2 [2]; [5]) [µM] | Ratio EC50 (dengue virus type 2 [3]) | EC50 (dengue virus type 2 [2]; huh-7) [µM] | EC90 (dengue virus type 2 [2]; Dengue virus, New Guinea C) [µM] | selectivity ratio [4]
1 | COc1ccc2ncnc(Nc3cc(OC)c(OC)c(OC)c3)c2c1 | > 10 | > 10 | – | – | – | –
2 | COc1cc(Nc2ncnc3ccc(Cl)cc23)cc(OC)c1OC | > 10 | 1 | >10 | – | – | –
3 | Clc1ccc(-c2ccc(-c3nc(NCc4cccnc4)nc4ccccc34)s2)cc1 | – | 0.07 | – | – | – | –
4 | CC(C)(C)Oc1cccc2nc(N)nc(N)c12 | – | 0.0028 | – | – | – | –
5 | COc1cc2ncnc(Nc3cc(OC)c(OC)c(OC)c3)c2cc1OC | > 10 | 6.6 | – | – | – | –
6 | COc1cc2nccc(Nc3cc(OC)c(OC)c(OC)c3)c2cc1OC | > 10 | > 10 | – | – | – | –
7 | COc1cc(Nc2ccnc3cc(Cl)ccc23)cc(OC)c1OC | > 10 | > 10 | – | – | – | –
8 | COc1cc(-c2cnc3c(N4C[C@@H](C)O[C@@H](C)C4)snc3c2)ccc1N | – | 0.87 | – | – | – | –
9 | COc1ccc(-c2cnc3[nH]cc(C#Cc4cccnc4)c3c2)cc1OC | – | 0.72 | – | – | – | –
10 | COc1cc(Nc2ccnc3ccc(Br)cc23)cc(OC)c1OC | > 10 | 0.08 | >80 | 0.122 | – | –
11 | COc1cc(Nc2ncnc3ccc(C(F)(F)F)cc23)cc(OC)c1OC | > 10 | > 10 | – | – | – | –
12 | CCN(CC)c1ccc(Oc2ccc(-c3[nH]c4cccc(F)c4c(=O)c3C)cc2F)cc1 | – | 0.007 | – | – | – | –
13 | COc1cc(N(C)c2ccnc3ccc(C(F)(F)F)cc23)cc(OC)c1OC | > 10 | 10 | – | – | – | –
14 | COc1cc(Nc2ccnc3ccc(I)cc23)cc(OC)c1OC | > 10 | 0.82 | – | – | – | –
15 | COc1cc(Nc2cc(C)nc3ccc(C(F)(F)F)cc23)cc(OC)c1OC | > 10 | 0.91 | – | – | – | –
16 | COc1cc(Nc2ccnc3ccc(Cl)cc23)cc(OC)c1OC | > 10 | 0.52 | – | – | – | –
17 | COc1cc(Nc2ccnc3cc(C#N)ccc23)cc(OC)c1OC | > 10 | 3.3 | – | – | – | –
18 | COc1cc(Nc2ccnc3ccc(C#N)cc23)cc(OC)c1OC | > 10 | 0.76 | – | – | – | –
19 | COc1ccc2c(Nc3cc(OC)c(OC)c(OC)c3)ccnc2c1 | > 10 | > 10 | – | – | – | –
20 | COc1cc(Nc2ccnc3ccccc23)cc(OC)c1OC | > 10 | 8.2 | – | – | – | –
21 | COc1ccc2nccc(Nc3cc(OC)c(OC)c(OC)c3)c2c1 | > 10 | 0.75 | 8 | – | – | –
22 | COc1cc(Nc2ccnc3cc(I)ccc23)cc(OC)c1OC | > 10 | 3.6 | 2 | – | – | –

Row | Structure (SMILES) | CC50 [1] [µM] | EC50 (dengue virus type 2 [2]; [5]) [µM] | Ratio EC50 (dengue virus type 2 [3]) | EC50 (dengue virus type 2 [2]; huh-7) [µM] | EC90 (dengue virus type 2 [2]; Dengue virus, New Guinea C) [µM] | selectivity ratio [4]
23 | COc1cc(Nc2ncnc3ccccc23)cc(OC)c1OC | > 10 | 2.8 | 2 | – | – | –
24 | COc1cc(Nc2ccnc3ccc(F)cc23)cc(OC)c1OC | > 10 | 5.2 | – | – | – | –
25 | COc1cc(Nc2c(C#N)cnc3ccc(S(C)(=O)=O)cc23)cc(OC)c1OC | > 10 | > 10 | – | – | – | –
26 | COc1cc(Nc2c(C#N)cnc3ccc(Br)cc23)cc(OC)c1OC | > 10 | 0.082 | >80 | – | 0.151 | –
27 | COc1cc(Nc2ccnc3cc(C(F)(F)F)ccc23)cc(OC)c1OC | > 10 | 6.8 | – | – | – | –
28 | COc1cc(Nc2ccnc3ccc(S(C)(=O)=O)cc23)cc(OC)c1OC | > 10 | 0.84 | – | – | – | –
29 | COc1cc(Nc2c(C#N)cnc3cc(Cl)ccc23)cc(OC)c1OC | > 10 | > 10 | – | – | – | –
30 | COc1cc(Nc2c(C#N)cnc3cc(Br)ccc23)cc(OC)c1OC | > 10 | > 10 | – | – | – | –
31 | COc1cc(Nc2ncnc3ccc(F)cc23)cc(OC)c1OC | > 10 | > 10 | – | – | – | –
32 | COc1ccc2c(Nc3cc(OC)c(OC)c(OC)c3)c(C#N)cnc2c1 | > 10 | > 10 | – | – | – | –
33 | COc1cc(Nc2cc(C)nc3ccc(Br)cc23)cc(OC)c1OC | 2.5 | 0.28 | >20 | – | 0.53 | 10
34 | COc1cc(Nc2ncnc3ccc(S(C)(=O)=O)cc23)cc(OC)c1OC | > 10 | > 10 | – | – | – | –
35 | COc1cc(Nc2ccnc3cc(F)ccc23)cc(OC)c1OC | > 10 | 4.1 | – | – | – | –
36 | COc1cc(Nc2c(C#N)cnc3ccc(Cl)cc23)cc(OC)c1OC | > 10 | 1.3 | – | – | – | –
37 | COc1cc(Nc2cc(C)nc3ccc(F)cc23)cc(OC)c1OC | > 10 | 2.3 | – | – | – | –
38 | COc1cc(Nc2cc(C)nc3cc(C(F)(F)F)ccc23)cc(OC)c1OC | > 10 | > 10 | – | – | – | –
39 | COc1ccc2nc(C)cc(Nc3cc(OC)c(OC)c(OC)c3)c2c1 | > 10 | 10 | – | – | – | –
40 | COc1cc(Nc2ncnc3cc(F)c(F)cc23)cc(OC)c1OC | > 10 | > 10 | >10 | – | – | –
41 | COc1cc(Nc2c(C#N)cnc3ccc(I)cc23)cc(OC)c1OC | > 10 | 0.079 | >80 | – | 0.125 | –
42 | COc1cc(Nc2ccnc3cc(F)c(F)cc23)cc(OC)c1OC | 5.5 | 1 | – | – | – | –
43 | COc1cc(Nc2ccnc3c(C)cccc23)cc(OC)c1OC | > 10 | > 10 | – | – | – | –
44 | COc1ccc2c(Nc3cc(OC)c(OC)c(OC)c3)cc(C)nc2c1 | > 10 | > 10 | – | – | – | –

Row | Structure (SMILES) | CC50 [1] [µM] | EC50 (dengue virus type 2 [2]; [5]) [µM] | Ratio EC50 (dengue virus type 2 [3]) | EC50 (dengue virus type 2 [2]; huh-7) [µM] | EC90 (dengue virus type 2 [2]; Dengue virus, New Guinea C) [µM] | selectivity ratio [4]
45 | COc1cc(Nc2c(C#N)cnc3cc(I)ccc23)cc(OC)c1OC | > 10 | 4.7 | – | – | – | –
46 | COc1cc(Nc2ncnc3cc(Cl)ccc23)cc(OC)c1OC | > 10 | 6.1 | – | – | – | –
47 | COc1cc(Nc2ccnc3cc(Br)ccc23)cc(OC)c1OC | > 10 | 8.4 | – | – | – | –
48 | COc1cc2nc(C)cc(Nc3cc(OC)c(OC)c(OC)c3)c2cc1OC | > 10 | 10 | – | – | – | –
49 | COc1cc(Nc2ncnc3ccc(Br)cc23)cc(OC)c1OC | > 10 | 0.97 | – | – | – | –
50 | COc1cc(Nc2ncnc3cc(I)ccc23)cc(OC)c1OC | 5.8 | 2.9 | – | – | – | –
51 | COc1cc(Nc2c(C#N)cnc3ccccc23)cc(OC)c1OC | > 10 | > 10 | – | – | – | –
52 | COc1cc(Nc2ncnc3ccc(I)cc23)cc(OC)c1OC | > 10 | 1 | – | – | – | –
53 | COc1cc(Nc2ncnc3ccc(C#N)cc23)cc(OC)c1OC | > 10 | 3.7 | – | – | – | –
54 | COc1cc(Nc2ncnc3cc(C(F)(F)F)ccc23)cc(OC)c1OC | > 10 | 5.1 | – | – | – | –
55 | COc1ccc2c(Nc3cc(OC)c(OC)c(OC)c3)ncnc2c1 | > 10 | 2.7 | 2 | – | – | –
56 | COc1ccc2ncc(C#N)c(Nc3cc(OC)c(OC)c(OC)c3)c2c1 | > 10 | 3.1 | – | – | – | –
57 | COc1cc(Nc2ncnc3cc(F)ccc23)cc(OC)c1OC | > 10 | > 10 | – | – | – | –
58 | COc1cc(Nc2ncnc3cc(C#N)ccc23)cc(OC)c1OC | > 10 | 1.4 | – | – | – | –
59 | COc1cc(Nc2ncnc3ccc(C)cc23)cc(OC)c1OC | > 10 | > 10 | – | – | – | –
60 | COc1cc(Nc2cc(C)nc3ccccc23)cc(OC)c1OC | > 10 | 8 | – | – | – | –
61 | COc1cc(Nc2ncnc3cc(Br)ccc23)cc(OC)c1OC | > 10 | 2 | – | – | – | –
62 | COc1cc(Nc2ccnc3ccc(C(C)(C)C)cc23)cc(OC)c1OC | > 10 | 7.4 | – | – | – | –
63 | COc1cc(Nc2ccnc3ccc(C(F)(F)F)cc23)cc(OC)c1OC | > 10 | 0.59 | – | – | – | –
64 | COc1cc2ncc(C#N)c(Nc3cc(OC)c(OC)c(OC)c3)c2cc1OC | > 10 | 5.5 | – | – | – | –
65 | C#Cc1cccc(Nc2ncnc3cc(OCCOC)c(OCCOC)cc23)c1 [ERLOTINIB] | – | 6.5 | – | – | – | –
